Source: patent publication US20040171692A1, “Modulation of bone formation” (priority 2003, published 2004)
Entries after “also recorded” stand apart in the source; their conditions may differ.

Legend:
[1] = tested on: bone forming cells (whole bone marrow cells, NASP cells, neonatal rat calvariae); assay: CFU-f and NASP cell assays in combination with neonatal rat calvarial organ cultures (bone anabolic activity); format: cell-based; conditions: for bone anabolic activity: useful = equivalent activity to that of PGE2, FIGS. 4-7
Text: The main reason for the lack of understanding of the cellular basis for the actions of bone anabolic drugs is that there exists, at present, no single in vitro assay which responds to these drugs in an appropriate manner. However, we have now developed a number of assays which, when used in combination with neonatal rat calvarial organ cultures, are able to predict bone anabolic agents.
Whole bone marrow cells (BMC's) were obtained from the tibias and femurs of 125 g male Wistar rats. The bones were removed under aseptic conditions and all soft adherent tissue removed. An end of each bone was removed, a hole made in the opposing end with an 18 gauge syringe needle, and the cells isolated centrifugally [Dobson K. R., et al., Calcif. tissue Int., 65:411-413 (1999)]. The cells were dispersed in 10 ml DMEM (containing 12% FCS, 1×10^−8 M dexamethasone and […] ascorbic acid) by repeated pipetting, and a single-cell suspension achieved by forcefully expelling the cells through a 20 gauge syringe needle. The cells were then used in the protocols described below.
To analyse the numbers of fibroblastic-colony forming units (CFU-f) in either whole BMC or high density non-adherent stromal precursor (NASP) cell cultures, 10^6 nucleated BMC, or the non-adherent cells from the high density NASP cell cultures, were plated out on 55 cm^2 petri dishes in DMEM containing; 12% FCS, 1×10^−8 M dexamethasone and 50 μg/ml ascorbic acid. In the case of the CFU-f analysis of whole BMC, the test agents were added once at the beginning of the culture period. In the case of NASP cell cultures, the test agents were added at the beginning of the NASP cell cultures themselves and the CFU-f assay only used to assess the number of CFU-f generated during the NASP cell culture. The medium was changed after 5 days and, thereafter, twice weekly. The cultures were maintained for 18 days, after which the cells were washed with PBS and fixed, by the addition of cold ethanol.
After fixation, the cultures were stained for alkaline phosphatase (APase) positive, calcium positive, collagen positive and total colonies as described by Scutt & Bertram (J. Bone and Mineral Res. 10:474-489, 1995). The cultures were then photographed using a digital camera and the APase positive, calcium positive, collagen positive and total colonies quantitated using Bioimage “Intelligent Quantifier” image analysis software [Dobson K., et al., A cost effective method for the automatic quantitative analysis of fibroblastic-colony forming units with osteoblastic potential. Calcif. Tissue Int. 65:166-172 (1999)].
BMC were cultured at a density of 1.5×10^6 cells per 2 cm^2 well in 0.75 ml DMEM containing 12% FCS, 10^−8 M dexamethasone and 50 μg/ml ascorbic acid. Solutions of the agents to be tested were added to the wells and then cultured for 4 days. The numbers of NASP cells present in the supernatant were then quantitated as described above for CFU-f cultures. To do this, the cultures were gently agitated and the supernatants, containing the non-adherent cells, were transferred to 55 cm^2 petri dishes. 10 ml of DMEM containing 12% FCS, 1×10^−8 M dexamethasone, 50 μg/ml ascorbic acid was added and the cultures maintained further as described above for CFU-f cultures.
One day old rat pups were killed and the calvariae (skull cases) dissected out. The calvariae were then cut along the sagittal suture to give two hemicalvariae per foetus. Each bone was cultured in 2 ml DMEM containing 1 mg/ml BSA, 50 μg/ml ascorbic acid, 60 μg/ml penicillin, and 50 μg/ml streptomycin and 1×10^−8 M dexamethasone in 35 mm tissue culture wells. After 24 h, the medium was replaced with fresh medium, any test agent added, and the tissue cultured for a further 48 h.
In this assay, each bone was pulsed with 10 μCi of [^3H]proline for 24 h at the end of the culture period. The bones were washed successively in trichloroacetic acid (TCA), acetone, and ether, and then dried. […]

whole bone marrow cells = assay: Fibroblastic colony forming unit (CFU-f) cultures, colony numbers; format: cell-based, rat
Description: Whole bone marrow cells (BMC's) were obtained from the tibias and femurs of 125 g male Wistar rats. The bones were removed under aseptic conditions and all soft adherent tissue removed. An end of each bone was removed, a hole made in the opposing end with an 18 gauge syringe needle, and the cells isolated centrifugally [Dobson K. R., et al., Calcif. tissue Int., 65:411-413 (1999)]. The cells were dispersed in 10 ml DMEM (containing 12% FCS, 1×10^−8 M dexamethasone and […] ascorbic acid) by repeated pipetting, and a single-cell suspension achieved by forcefully expelling the cells through a 20 gauge syringe needle. The cells were then used in the protocols described below. To analyse the numbers of fibroblastic-colony forming units (CFU-f) in either whole BMC or high density non-adherent stromal precursor (NASP) cell cultures, 10^6 nucleated BMC, or the non-adherent cells from the high density NASP cell cultures, were plated out on 55 cm^2 petri dishes in DMEM containing; 12% FCS, 1×10^−8 M dexamethasone and 50 μg/ml ascorbic acid. In the case of the CFU-f analysis of whole BMC, the test agents were added once at the beginning of the culture period. In the case of NASP cell cultures, the test agents were added at the beginning of the NASP cell cultures themselves and the CFU-f assay only used to assess the number of CFU-f generated during the NASP cell culture. The medium was changed after 5 days and, thereafter, twice weekly. The cultures were maintained for 18 days, after which the cells were washed with PBS and fixed, by the addition of cold ethanol. […] The cultures were then photographed using a digital camera and the APase positive, calcium positive, collagen positive and total colonies quantitated using Bioimage “Intelligent Quantifier” image analysis software [Dobson K., et al., A cost effective method for the automatic quantitative analysis of fibroblastic-colony forming units with osteoblastic potential. […]

MB-1.8 cells = MB-1.8 cells exposed to TZD; cited from earlier work

| Structure (SMILES) | bone anabolic activity [1] | colony numbers (whole bone marrow cells) | also measured |
| --- | --- | --- | --- |
| c1cc2c(cc1[C@H]1OC[C@H]3[C@@H]1CO[C@@H]3c1ccc3c(c1)OCO3)OCO2 [sesamin] | useful activity |  |  |
| CCCCC[C@H](O)/C=C/[C@H]1C=CC(=O)[C@@H]1C/C=C\CCCC(=O)O [PGA2] | useful activity |  |  |
| CC#CCC(C)[C@H](O)/C=C/[C@@H]1[C@H]2C/C(=C/CCCC(=O)O)C[C@H]2C[C@H]1O (some centres unmarked) [iloprost] |  | stimulation comparable with that of PGA1 |  |
| CCCCCCCCCCCCCCCC(=O)OC [Methyl palmitate, methyl palmitate] |  | stimulation |  |
| CCCCC/C=C\C/C=C\CCCCCCCC(=O)O [Linoleic acid, linoleic acid] | showed bone anabolic activity |  |  |
| CN(CCOc1ccc(CC2SC(=O)NC2=O)cc1)c1ccccn1 (centres unmarked) [TZD, 5-(4-{[N-methyl-N(2-pyridyl)-amino]ethoxy}benzyl)thiazolidine-2,4-dione] |  |  | alkaline phosphatase activity and expression of osteoblast-associated genes (MB-1.8 cells): decrease; expression of adipocyte fatty acid protein (MB-1.8 cells): enhancing |
| CCCCCCCC/C=C\CCCCCCCC(=O)O [oleic acid] | useful activity |  |  |
| CCCCC[C@H](O)/C=C/[C@H]1C=CC(=O)[C@@H]1CCCCCCC(=O)O [PGA1] |  | significant dose dependent increase | response in all three assays ([1]; alkaline phosphatase activity, calcium uptake and collagen synthesis, FIG. 1): positive response; bone anabolic activity relative to PGE2 ([1]; compared with PGE2, FIGS. 1-3): comparable with that produced by PGE2; also recorded: at least as good as that of PGE2 |
